Laboratory results from patent publication US9889184B2 (priority 2008, dated 2018).

What was measured:
[1] = system: Fusarium oxysporum f. sp. vasinfectum (Fov) hyphae; test: Permeabilisation of Fov hyphae by defensins, SYTOX green (Example 10); format: cell-based; conditions: within 60 mins; followed over 2 h
Protocol: Fov hyphae were grown in half-strength PDB (10 mL in a 50 mL tube) from a starting concentration of 5×10^4 spores/mL for 18 h at 25° C. with constant shaking. Samples (1 mL) were then removed and NaD1 (final concentration 2 μM), NaD1R&A (final concentration 2 μM) or an equivalent volume of water was added before incubation for 2 h at RT with gentle agitation. SYTOX® green (Invitrogen-Molecular Probes, Eugene, Oreg.) was added to a final concentration of 0.5 μM and the hyphae were allowed to stand for 10 min. Hyphae (20 μL) were then transferred to microscope slides (SuperFrost (Registered) Plus, Menzel-Glaser) and covered with glass coverslips for visualization of SYTOX® green uptake using an Olympus BX51 fluorescence microscope. SYTOX® green fluorescence was detected using an MWIB filter (excitation wavelength 460-490 nm). Images were captured using a SPOT RT 3CCD digital camera (Diagnostic Instruments) and processed using Adobe Photoshop. SYTOX® green uptake was quantitated by measuring fluorescence of hyphae in microtitre trays using a fluorimeter (SpectraMax M2; Molecular Devices) with excitation and emission wavelengths of 488 nm and 538 nm, respectively.
The ability of defensins to permeabilise Fusarium oxysporum f. sp. vasinfectum (Fov) hyphae was assessed using a SYTOX green assay as described in the detailed description (NaD1 and membrane permeabilisation).

Leptosphaeria maculans = test: Growth inhibition by NaD1 (microtitre OD595); format: cell-based
Text: (§1) Antifungal activity against Fusarium oxysporum f. sp. vasinfectum (Fov, Australian isolate VCG01111 isolated from cotton; from Wayne O'Neill, Farming Systems Institute, DPI, Queensland, Australia), Thielaviopsis basicola (gift from David Nehl, NSW DPI, Narrabri, Australia), Verticillium dahliae (from Helen McFadden, CSIRO Plant Industry, Black Mountain, Australia), Leptosphaeria maculans (from Barbara Howlett, University of Melbourne, Victoria, Australia) and Aspergillus nidulans (from Michael Hynes, University of Melbourne) was assessed essentially as described in Broekaert et al, 1990. Spores were isolated from sporulating cultures growing in either half-strength potato dextrose broth (PDB) (Fov and T. basicola), Czapeck-Dox Broth (V. dahliae) (Difco Laboratories) or 10% (v/v) clarified V8 medium (L. maculans and A. nidulans) by filtration through sterile muslin. Spore concentrations were determined using a hemocytometer and adjusted to 5×10^4 spores/mL in the appropriate growth medium. Spore suspensions (80 μL) were added to the wells of sterile 96-well flat-bottomed microtitre plates along with 20 μL of filter-sterilized (0.22 μm syringe filter; Millipore) NaD1, or water to give final protein concentrations of 0-10 μM. The plates were shaken briefly and placed in the dark at 25° C. without shaking until the optical density at 595 nm of the water control reached approximately 0.2 (24-72 h depending on growth rate). Hyphal growth was estimated by measuring the optical density at 595 nm using a microtitre plate reader (SpectraMax Pro M2; Molecular Devices). Each test was performed in quadruplicate.

Aspergillus nidulans = test: Growth inhibition by NaD1 (microtitre OD595); format: cell-based
Text: as §1

Verticillium dahliae = test: Growth inhibition by NaD1 (microtitre OD595); format: cell-based
Text: as §1

Thielaviopsis basicola = test: Growth inhibition by NaD1 (microtitre OD595); format: cell-based
Text: as §1

Fov infection = conditions: transgenic cotton expressing NaD1 vs untransformed parent variety, field trials; cited from earlier work
Fov hyphae = test: Uptake of NaD1 into hyphae (immunogold EM, bimane fluorescence, immunoblot); format: cell-based, Fusarium oxysporum f. sp. vasinfectum
Protocol: Fov hyphae were grown as described above prior to the addition of NaD1 (10 μM final concentration) to 1 mL of the culture. Samples (100 μL) were collected after 0, 5, 10, 30, 60, 90 and 120 min. Hyphae were collected by centrifugation (10 min, 10,000×g) and the supernatant was stored at −20° C. for analysis. Hyphae were washed (2×10 min) with KCl (0.6 M) to remove any ionically bound protein before they were resuspended in 50 mM CAPS buffer (pH 10.0) containing 10 mM DTT for 20 min. Hyphae were collected by centrifugation and the supernatant, containing cell wall proteins, was collected for analysis. The pellet (containing cells) was resuspended in water and the cells were lysed using glass beads (Sigma, 60 mg) and vortexing (3×10 min). Cellular debris was removed by centrifugation (16,000×g, 10 min) and the supernatant collected for analysis. All samples were then analyzed by SDS-PAGE and immunoblotting.
Fov hyphae were grown for 18 h in half-strength PDB (5 mL) with vigorous shaking at 25° C. from a starting spore suspension of 5×10^4/mL. Hyphae were then treated with 2 μM NaD1 or an equivalent volume of water for 2 h at RT with gentle agitation, and were washed twice in 0.6 M KCl and three times in PBS before fixation in 4% (w/v) paraformaldehyde in PBS for 1 h at 4° C. Hyphae were again washed three times in PBS before dehydration in a standard ethanol series (15 min each, 50%, 70% and 90% ethanol, 3×15 min 100% ethanol). Hyphae were then infiltrated with LR White resin (ProSciTech) for 1 h at RT, followed by 18 h at 4° C., 1 h at RT and 24 h at 60° C. Fresh LR White resin was used at each step. Ultrathin sections were cut and placed on Formvar coated gold grids.
Grids were blocked with PBS containing 8% (w/v) BSA and 1% (v/v) Triton X-100 for 1 h and labeled with α-NaD1 antibodies (2 μg/mL in blocking buffer) for 1 h. Grids were washed in blocking buffer (3×10 min) and labeled with 15 nm gold particle labeled goat α-rabbit IgG antibodies (ProSciTech diluted 1 in 20 for 1 h. Grids were washed again in blocking solution (3×10 min) followed by water (15 min) before being air-dried. A JEOL JEM2010HC x e80 KV transmission electron microscope was used to examine labeled grids. Pictures were taken on Kodak EM film (ProSciTech) and developed in a dark room before scanning on a Hewlett Packard Scanjet 5P scanner.
Hyphae grown for 18 h as described were treated with NaD1-bimane (2 μM) for between 10 min and 6 h. Hyphae were then visualized by fluorescence microscopy using an MWU filter (excitation wavelength of 330-385 nm).

For “NaD1: plant defensin isolated from floral tissue of Nicotiana alata (SEQ ID NO:12) (RECKTESNTFPGICITKPPCRKACISEKFTDGHCSKILRRCLCTKPC; Nicotiana alata (NaD1))”, the “permeabilisation of Fov hyphae (SYTOX green)” value [1] was “efficiently permeabilise”, the growth retarded (Leptosphaeria maculans; 1 μM NaD1, L. maculans) was 50% and the growth inhibited (Leptosphaeria maculans; 5 μM NaD1, L. maculans) was “more than 80%”. For the same substance, the IC50 (Leptosphaeria maculans; Leptosphaeria maculans) was 800 nM, the growth inhibited (Aspergillus nidulans; 1 μM NaD1, A. nidulans) was “approximately 65%” and the growth inhibited (Aspergillus nidulans; 5 μM NaD1, A. nidulans) was “more than 80%”. The IC50 (Aspergillus nidulans; Aspergillus nidulans) was 800 nM, the growth inhibited (Verticillium dahliae; 1 μM NaD1, V. dahliae) was “approximately 65%” and the growth inhibited (Verticillium dahliae; 5 μM NaD1, V. dahliae) was “more than 80%”. For the same substance, the IC50 (Verticillium dahliae; Verticillium dahliae) was 750 nM, the growth inhibited (Thielaviopsis basicola; 1 μM NaD1, T. basicola) was “approximately 65%” and the growth inhibited (Thielaviopsis basicola; 5 μM NaD1, T. basicola) was “more than 80%”. The IC50 (Thielaviopsis basicola; Thielaviopsis basicola) was 800 nM, the “protection from the pathological effects of Fov infection” value (Fov infection) was “significantly protected” and the “NaD1 in cytoplasm of treated hyphae, immunogold α-NaD1 labeling” value (Fov hyphae; NaD1 10 μM, 2 h, many, but not all, hyphae) was “heavily labeled”. The “time after which NaD1 uptake occurred” value (Fov hyphae; SDS-PAGE and immunoblotting of cytoplasmic contents) was 20 min and the “time until which NaD1 in the Fov cytoplasm increased” value (Fov hyphae; immunoblotting, decreased slightly afterwards) was 60 min.
